Test results published in paper PMC12035805, “A Water-Soluble Aggregation-Induced Emission Photosensitizer with Intrinsic Antibacterial Activity as an Antiplanktonic and Antibiofilm Therapeutic Agent” (Journal of Medicinal Chemistry, 2025).
Values after ≈ are worked out from the molar mass of the structure shown. Read-outs that look alike come from different tables or passages of the source.

Key:
[1] = Cytotoxicity (MTT) assay against HFF-1 cells; assay type: cell-based; settings: human, no irradiation, read-out: 50% cytotoxicity concentration (CC50) against HFF-1 cells
Description: The cytotoxicity of TPA-1, TPA-0, and TPA-NC-1 against HFF-1 cells was evaluated using the 3-(4,5-dimethylthiazol-2-yl)-2,5-diphenyltetrazolium bromide (MTT) assay kit from ThermoFisher Scientific. In general, HFF-1 cells (MEM, 10% FBS, and 1% penicillin-streptomycin) were seeded in a 96-well plate with a density of 3000 cells/well overnight at 37 °C with 5% CO2. Then, the cells were treated with different concentrations of compounds for 24 h. MTT (10 μL, 5 mg/mL) was added to the medium, and the cells were further incubated for 3 h. The medium was then replaced by DMSO (100 μL). After gently shaking the plate for 30 s, the optical density of the solutions at 570 nm was measured by a BMG Labtech CLARIOstar microplate reader. The cell viability was calculated as (ODcompound – ODDMSO)/(ODmedium - ODDMSO) × 100% where ODcompound, ODmedium, and ODDMSO are the optical densities of the treated cell, nontreated cells, and DMSO at 570 nm, respectively. The experiment was conducted in triplicate. The CC50 values were calculated using GraphPad Prism 8.

[2] = Log P, 1-octanol/water partition; assay type: physicochemical; settings: 1-octanol/water (1:1)
Description: The log P values of TPA compounds were obtained according to previously reported methods.[66] 1-octanol was first presaturated with water. Equal volume and concentration of TPA-NC-1, TPA-0, and TPA-1 were added to a 1-octanol/water (1:1) mixture and vortexed for 1 min. The mixture was then centrifuged for 5 min at 13,500 rpm. After that, the absorptions of the compound in the 1-octanol and water phases were measured. The concentrations of the compound in both phases were calculated by using the absorption calibration curve of the corresponding compound. Log P = log (concentration of the compound in 1-octanol/concentration of the compound in water).

human erythrocytes = test: Hemolysis of human erythrocytes; assay type: cell-based
Description: (§1) The human erythrocyte concentrate was prepared according to the kit manual from the Biomaterial Hemolytic Assay Kit (Hemoscan). After the human erythrocytes had been washed and diluted with manufacture buffer, 100 μL of erythrocytes (10%) were added into 100 μL of various concentrations of compounds in PBS. 1% of Triton X (1%) was the positive control, while PBS was the negative control. The erythrocytes were then gently mixed with the TPA compounds and further incubated for an hour at 37 °C. After that, the erythrocytes were centrifuged (1000 rpm, 5 min), and 20 μL of supernatant was added to 180 μL of PBS in a 96-well plate. The optical density at 380, 415, and 450 nm was measured by a plate reader. The final OD value of the compounds was calculated as (2 × OD415) – (OD450 + OD380) where OD380, OD415, and OD450 are the optical density of the solution at 380, 415, and 450 nm, respectively. The hemolysis rates of the compounds were calculated as (ODcompound – ODPBS)/(ODTritonX – ODPBS) × 100% where ODcompound, ODPBS, and ODTritonX are the final OD values of the erythrocytes mixed with TPA compounds, PBS, and 1% Triton X, respectively. The experiment was performed in triplicate.

[3] = Hemolysis of human erythrocytes; assay type: cell-based; settings: 200 μM compound, 1 h, 37 °C
Description: as §1

S. aureus = test: Resistance development assay on S. aureus; assay type: cell-based, Staphylococcus aureus
Description: The MICs for TPA-1 and norfloxacin against S. aureus were first determined by the above-mentioned method. The wells with 0.5 × MIC of compounds were transferred to 1 mL fresh MHB and incubated under darkness for 3–4 h at 37 °C. The bacteria were then used to conduct a MIC assay again. The experiments were repeated for 20 days. The fold changes in the MIC values of the compounds were recorded. The experiments were performed in duplicate.

[4] = system: P. aeruginosa (ATCC 27853); test: MIC assay (broth microdilution, CLSI), without light; assay type: cell-based; settings: Pseudomonas aeruginosa, ATCC27853, light or radiation study; without light irradiation; read-out: MIC against P. aeruginosa (ATCC 27853)
Description: (§2) The MIC assays of TPA-1 were conducted according to the broth microdilution methods described in the Clinical and Laboratory Standards Institute (CLSI) standard. A single colony of S. aureus (ATCC 29213), methicillin-resistant S. aureus (BAA 41), or P. aeruginosa (ATCC 27853) on an LB agar plate was picked and suspended in Mueller–Hinton Broth (MHB). The bacterial culture was grown overnight at 37 °C. The next day, the bacteria culture was diluted 100 times in fresh MHB and grown to the mid log phase. Bacteria in the mid log phase were further diluted to 5 × 10^6 CFU/mL in cation-adjusted MHB (S. aureus) or MHB (P. aeruginosa). Ten μL of the diluted bacteria were added to a 96-well plate containing 90 μL of serial diluted TPA-1 in the corresponding medium. The plate was incubated overnight at 37 °C. The MICs of the TPA compounds were the concentrations at which no apparent bacteria were observed by the naked eye. Different concentrations of LTA were also added to examine the change in MIC values of TPA-1 against S. aureus. The experiments were conducted in triplicate.

S. aureus (ATCC 29213) = test: as above; assay type: cell-based; settings: Staphylococcus aureus, ATCC29213, light or radiation study, read-out: MIC against S. aureus (ATCC 29213)
Description: as §2

[5] = system: methicillin-resistant S. aureus (BAA 41); test: as above; assay type: cell-based; settings: Staphylococcus aureus, BAA41, light or radiation study, read-out: MIC against methicillin-resistant S. aureus (BAA 41)
Description: as §2

| logP [2] | Structure (SMILES) | CC50 at 24 h [1] [µM] | HC50 (human erythrocytes) [µM] | hemolysis at 1 h, 200 µM [3] [%] | also measured |
| --- | --- | --- | --- | --- | --- |
| 1.1 | CC[n+]1c(/C=C/c2ccc(-c3ccc(N(c4ccc(OC)cc4)c4ccc(OC)cc4)cc3)s2)sc2ccccc21.[Br-] [TPA-NC-1, reference compound] | 7.8 ± 0.7 | < 200 | > 60 |  |
|  | CCn1cc(C(=O)O)c(=O)c2cc(F)c(N3CCNCC3)cc21 [norfloxacin, reference compound] |  |  |  | increase of MIC against S. aureus after treatment for 20 days (S. aureus; 20 days of passages at 0.5 × MIC): 1024 fold; MIC (S. aureus; Staphylococcus aureus, read-out: initial MIC against S. aureus in resistance development assay): 0.5 µM (≈ 0.16 µg/mL) |
|  | C[C@@H](O)[C@H]1C(=O)N2C(C(=O)O)=C(S[C@@H]3CN[C@H](C(=O)N(C)C)C3)[C@H](C)[C@H]12 [Meropenem, reference compound] |  |  |  | MIC [4]: 2.5 µM (≈ 0.959 µg/mL); MIC (S. aureus (ATCC 29213); without light irradiation): 0.312 µM (≈ 0.12 µg/mL) |
| -1.7 | CC[n+]1c(/C=C/c2ccc(-c3ccc(N(c4ccc(OCCC[N+](C)(C)C)cc4)c4ccc(OCCC[N+](C)(C)C)cc4)cc3)s2)sc2ccccc21.[Br-].[Br-].[Br-] [TPA-0] | 120 ± 20 | > 200 | < 3 |  |
|  | CN[C@H](CC(C)C)C(=O)N[C@H]1C(=O)N[C@@H](CC(N)=O)C(=O)N[C@H]2C(=O)N[C@H]3C(=O)N[C@H](C(=O)N[C@H](C(=O)O)c4cc(O)cc(O)c4-c4cc3ccc4O)[C@H](O)c3ccc(c(Cl)c3)Oc3cc2cc(c3O[C@@H]2O[C@H](CO)[C@@H](O)[C@H](O)[C@H]2O[C@H]2C[C@](C)(N)[C@H](O)[C@H](C)O2)Oc2ccc(cc2Cl)[C@H]1O [Vancomycin, reference compound] |  |  |  | MIC (S. aureus (ATCC 29213)): 0.625 µM (≈ 0.906 µg/mL); MIC [5]: 0.625 µM (≈ 0.906 µg/mL) |
